The text below walks through data of patent US10004732B2 (Novartis AG, priority 2014, dated 2018).

Data set [1] deals with T1, PI 3-kinase delta (Homo sapiens, UniProt O00329). Description: Cellular assay J1, p-Akt (S473) in Rat-1 cells, Surefire format. The following applies: non-asterisked data: version J1 (Surefire format), Rat-1 cells; read-out: Assay J PI3Kδ IC50. Type of data set: cell-based.
In data set [2] the target is T2, PI 3-kinase gamma (Homo sapiens, UniProt P48736). Kind of data set: Cellular U937 AKT assay K1 (MSD). The data set is classed as cell-based. The note with it: U937 cells, K1 format; read-out: Assay K1 PI3Kγ IC50.
The target in data set [3] is T3, PI 3-kinase alpha (Homo sapiens, UniProt P42336). Description: Kinase Glo Luminescent Kinase Assay (Kglo), assay A. Type of data set: biochemical. The note with it: read-out: Assay A PI3Kα IC50. (In general: Kinase-Glo reads ATP consumption through a luciferase reaction.)
Target sequence in this assay (P42336 whole entry): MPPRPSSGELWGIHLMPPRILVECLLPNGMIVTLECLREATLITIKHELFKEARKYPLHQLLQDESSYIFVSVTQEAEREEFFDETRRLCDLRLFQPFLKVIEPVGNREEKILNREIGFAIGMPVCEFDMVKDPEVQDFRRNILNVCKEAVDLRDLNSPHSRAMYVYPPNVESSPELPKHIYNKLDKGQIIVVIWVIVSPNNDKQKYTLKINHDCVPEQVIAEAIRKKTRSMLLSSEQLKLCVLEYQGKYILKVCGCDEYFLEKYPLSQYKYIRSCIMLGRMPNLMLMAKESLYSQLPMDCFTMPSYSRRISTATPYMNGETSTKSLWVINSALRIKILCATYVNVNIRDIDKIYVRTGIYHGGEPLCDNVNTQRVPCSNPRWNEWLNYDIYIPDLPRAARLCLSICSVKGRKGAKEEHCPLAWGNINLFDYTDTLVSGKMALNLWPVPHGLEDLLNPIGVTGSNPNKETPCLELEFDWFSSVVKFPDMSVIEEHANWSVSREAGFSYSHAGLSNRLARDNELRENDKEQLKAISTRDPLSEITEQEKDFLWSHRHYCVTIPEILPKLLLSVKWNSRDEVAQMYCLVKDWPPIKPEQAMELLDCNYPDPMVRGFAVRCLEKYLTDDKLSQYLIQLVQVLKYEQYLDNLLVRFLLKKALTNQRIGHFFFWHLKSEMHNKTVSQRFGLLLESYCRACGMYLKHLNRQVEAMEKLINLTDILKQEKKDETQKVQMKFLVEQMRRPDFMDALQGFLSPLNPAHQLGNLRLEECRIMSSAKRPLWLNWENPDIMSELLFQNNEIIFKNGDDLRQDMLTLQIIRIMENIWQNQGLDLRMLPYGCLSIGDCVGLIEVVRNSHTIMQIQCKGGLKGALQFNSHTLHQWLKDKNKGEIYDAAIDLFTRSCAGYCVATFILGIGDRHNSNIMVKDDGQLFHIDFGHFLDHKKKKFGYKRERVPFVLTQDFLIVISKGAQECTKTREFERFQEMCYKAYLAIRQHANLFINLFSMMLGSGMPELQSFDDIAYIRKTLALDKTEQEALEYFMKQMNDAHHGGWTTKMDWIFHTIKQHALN
Data set [4] concerns IL-8-induced neutrophil shape change in human whole blood. Description: Whole blood neutrophil shape change assay (L). The following applies: Homo sapiens, Neutrophil, IL-8, human whole blood, read-out: Assay L WBSC IC50. The data set is classed as cell-based.
Data set [5] deals with T1, PI 3-kinase delta. Description: TR-FRET Adapta assay, assay F. The note with it: read-out: Assay F PI3Kδ IC50. (In general: Time-resolved FRET reads energy transfer from a long-lived donor to a nearby acceptor.)
Data set [6] is described as follows: Microsomal clearance assay (M). The following applies: intrinsic clearance in rat liver microsomes. (Liver microsomes are vesicles of endoplasmic reticulum, rich in cytochrome P450 enzymes.)
Protocol: The experiments were performed in 96-well glass plates at 37° C. on an automated Tecan EVO platform. Test compounds at a concentration of 10 mM in pure DMSO were diluted 1:1000 in water to 10 μM. […] Reactions were initiated by the addition of 150 μL of a cofactor solution containing 2 mM NADPH.
For the next data set, the target named is mTOR (Homo sapiens, UniProt P42345). Kind of data set: Lanthascreen kinase binding assay, assay G. The following applies: read-out: Assay G mTOR IC50.
Data set [7] concerns the target T4, PI 3-kinase beta (Homo sapiens, UniProt P42338). Kind of data set: Cellular assay I1, p-Akt (S473) in Rat-1 cells, Surefire format. The data set is classed as cell-based. The following applies: non-asterisked data: version I1 (Surefire format), Rat-1 cells; read-out: Assay I PI3Kβ IC50.
Target sequence in this assay (P42338 whole entry): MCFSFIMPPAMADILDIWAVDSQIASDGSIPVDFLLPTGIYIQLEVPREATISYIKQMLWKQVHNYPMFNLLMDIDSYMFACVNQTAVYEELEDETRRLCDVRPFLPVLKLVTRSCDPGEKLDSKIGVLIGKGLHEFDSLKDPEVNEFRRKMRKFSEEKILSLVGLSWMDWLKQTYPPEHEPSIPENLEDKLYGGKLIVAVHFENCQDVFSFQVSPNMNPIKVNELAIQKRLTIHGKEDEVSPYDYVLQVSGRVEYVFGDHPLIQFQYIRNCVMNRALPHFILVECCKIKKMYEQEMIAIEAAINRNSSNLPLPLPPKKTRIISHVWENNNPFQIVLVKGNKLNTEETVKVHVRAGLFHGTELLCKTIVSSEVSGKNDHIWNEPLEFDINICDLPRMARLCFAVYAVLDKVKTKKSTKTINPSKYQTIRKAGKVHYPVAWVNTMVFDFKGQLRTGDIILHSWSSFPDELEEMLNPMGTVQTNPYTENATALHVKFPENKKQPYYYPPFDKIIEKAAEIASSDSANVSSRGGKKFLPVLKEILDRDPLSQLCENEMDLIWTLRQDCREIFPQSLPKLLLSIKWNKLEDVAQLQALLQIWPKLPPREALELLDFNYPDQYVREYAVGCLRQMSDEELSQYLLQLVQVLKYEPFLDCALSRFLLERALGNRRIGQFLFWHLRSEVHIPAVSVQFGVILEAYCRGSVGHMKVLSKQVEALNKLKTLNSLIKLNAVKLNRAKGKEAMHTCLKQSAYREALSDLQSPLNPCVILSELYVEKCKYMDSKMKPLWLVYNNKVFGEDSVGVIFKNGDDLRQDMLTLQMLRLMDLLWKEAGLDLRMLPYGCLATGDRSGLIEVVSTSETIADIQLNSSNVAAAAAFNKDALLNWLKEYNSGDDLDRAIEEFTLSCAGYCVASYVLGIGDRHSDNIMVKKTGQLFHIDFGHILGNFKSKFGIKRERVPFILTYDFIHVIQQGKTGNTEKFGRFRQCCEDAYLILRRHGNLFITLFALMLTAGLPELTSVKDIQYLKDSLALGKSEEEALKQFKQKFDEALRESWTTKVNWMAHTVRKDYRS
Target sequence in this assay (Q63787 whole entry partner): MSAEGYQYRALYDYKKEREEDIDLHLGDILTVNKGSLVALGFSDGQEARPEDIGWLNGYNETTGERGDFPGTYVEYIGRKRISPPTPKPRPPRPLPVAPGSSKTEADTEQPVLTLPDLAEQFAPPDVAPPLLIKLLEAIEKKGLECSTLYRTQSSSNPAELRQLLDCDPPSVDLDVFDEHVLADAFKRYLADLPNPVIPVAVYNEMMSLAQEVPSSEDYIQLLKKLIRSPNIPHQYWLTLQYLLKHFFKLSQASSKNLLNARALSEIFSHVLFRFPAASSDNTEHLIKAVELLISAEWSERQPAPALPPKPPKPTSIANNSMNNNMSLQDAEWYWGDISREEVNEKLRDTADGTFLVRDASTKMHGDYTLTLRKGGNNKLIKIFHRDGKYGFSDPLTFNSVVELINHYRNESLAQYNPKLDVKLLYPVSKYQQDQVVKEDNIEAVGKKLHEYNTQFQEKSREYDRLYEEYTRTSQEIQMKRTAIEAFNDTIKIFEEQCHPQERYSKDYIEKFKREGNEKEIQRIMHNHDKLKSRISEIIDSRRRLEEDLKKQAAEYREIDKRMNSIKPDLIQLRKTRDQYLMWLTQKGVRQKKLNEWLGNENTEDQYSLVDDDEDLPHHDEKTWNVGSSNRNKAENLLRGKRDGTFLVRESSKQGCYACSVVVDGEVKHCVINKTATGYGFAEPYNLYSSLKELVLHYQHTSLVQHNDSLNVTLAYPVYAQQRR
A further data set concerns the target Vps34 (Homo sapiens, UniProt Q8NEB9). Description: Kinase Glo Luminescent Kinase Assay (Kglo), assay C. The following applies: read-out: Assay C VPS34 IC50. Type of data set: biochemical.
The target in data set [8] is T3, PI 3-kinase alpha. Kind of data set: Cellular assay H1, p-Akt (S473) in Rat-1 cells, Surefire format. Type of data set: cell-based. The note with it: non-asterisked data: version H1 (Surefire format), Rat-1 cells; read-out: Assay H PI3Kα IC50.
Target sequence in this assay (P42336 whole entry): as the sequence (P42336 whole entry) above
Target sequence in this assay (Q63787 whole entry partner): as the sequence (Q63787 whole entry partner) above
Data set [9] deals with T2, PI 3-kinase gamma. Description: TR-FRET Adapta assay, assay E. The following applies: read-out: Assay E PI3Kγ IC50. Type of data set: biochemical.
Another data set concerns the target PI 4-kinase beta (Homo sapiens, UniProt Q9UBF8). Kind of data set: Kinase Glo Luminescent Kinase Assay (Kglo), assay D. The note with it: read-out: Assay D PI4Kβ IC50. The data set is classed as biochemical.
Data set [10] addresses T4, PI 3-kinase beta. Description: Kinase Glo Luminescent Kinase Assay (Kglo), assay B. The following applies: read-out: Assay B PI3Kβ IC50. The data set is classed as biochemical.
Target sequence in this assay (P42338 whole entry): as the sequence (P42338 whole entry) above
Target sequence in this assay (P27986 461-568 partner): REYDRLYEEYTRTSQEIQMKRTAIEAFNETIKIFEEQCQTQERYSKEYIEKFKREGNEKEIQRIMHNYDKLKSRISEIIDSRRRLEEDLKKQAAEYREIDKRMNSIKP

The structures appear in SMILES notation. Structures can show the parent of a compound that is named as a salt.

Sequence of PI 4-kinase beta (Q9UBF8 whole entry): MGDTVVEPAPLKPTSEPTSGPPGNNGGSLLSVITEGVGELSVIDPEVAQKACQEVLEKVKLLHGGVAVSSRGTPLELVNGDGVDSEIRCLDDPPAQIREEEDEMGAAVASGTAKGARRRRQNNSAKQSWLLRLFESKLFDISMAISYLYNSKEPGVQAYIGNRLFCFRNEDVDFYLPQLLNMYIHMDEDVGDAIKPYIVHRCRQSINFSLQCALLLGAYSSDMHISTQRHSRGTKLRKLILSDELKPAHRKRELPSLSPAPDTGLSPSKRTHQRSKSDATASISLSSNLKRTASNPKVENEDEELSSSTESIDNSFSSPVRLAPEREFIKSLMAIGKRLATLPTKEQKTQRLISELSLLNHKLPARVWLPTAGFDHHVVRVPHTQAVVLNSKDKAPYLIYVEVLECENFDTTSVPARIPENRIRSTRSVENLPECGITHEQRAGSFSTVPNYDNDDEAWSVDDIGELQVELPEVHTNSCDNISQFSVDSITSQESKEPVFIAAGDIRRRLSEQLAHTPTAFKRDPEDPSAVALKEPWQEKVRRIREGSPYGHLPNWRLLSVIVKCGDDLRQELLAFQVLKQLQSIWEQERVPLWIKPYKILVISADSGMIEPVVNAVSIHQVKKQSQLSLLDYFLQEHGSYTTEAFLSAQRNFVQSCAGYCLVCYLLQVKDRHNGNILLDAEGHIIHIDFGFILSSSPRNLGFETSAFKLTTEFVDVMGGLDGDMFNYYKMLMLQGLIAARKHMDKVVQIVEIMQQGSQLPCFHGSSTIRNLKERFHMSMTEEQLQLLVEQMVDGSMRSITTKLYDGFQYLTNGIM
Sequence of Vps34 (Q8NEB9 whole entry, species assumed): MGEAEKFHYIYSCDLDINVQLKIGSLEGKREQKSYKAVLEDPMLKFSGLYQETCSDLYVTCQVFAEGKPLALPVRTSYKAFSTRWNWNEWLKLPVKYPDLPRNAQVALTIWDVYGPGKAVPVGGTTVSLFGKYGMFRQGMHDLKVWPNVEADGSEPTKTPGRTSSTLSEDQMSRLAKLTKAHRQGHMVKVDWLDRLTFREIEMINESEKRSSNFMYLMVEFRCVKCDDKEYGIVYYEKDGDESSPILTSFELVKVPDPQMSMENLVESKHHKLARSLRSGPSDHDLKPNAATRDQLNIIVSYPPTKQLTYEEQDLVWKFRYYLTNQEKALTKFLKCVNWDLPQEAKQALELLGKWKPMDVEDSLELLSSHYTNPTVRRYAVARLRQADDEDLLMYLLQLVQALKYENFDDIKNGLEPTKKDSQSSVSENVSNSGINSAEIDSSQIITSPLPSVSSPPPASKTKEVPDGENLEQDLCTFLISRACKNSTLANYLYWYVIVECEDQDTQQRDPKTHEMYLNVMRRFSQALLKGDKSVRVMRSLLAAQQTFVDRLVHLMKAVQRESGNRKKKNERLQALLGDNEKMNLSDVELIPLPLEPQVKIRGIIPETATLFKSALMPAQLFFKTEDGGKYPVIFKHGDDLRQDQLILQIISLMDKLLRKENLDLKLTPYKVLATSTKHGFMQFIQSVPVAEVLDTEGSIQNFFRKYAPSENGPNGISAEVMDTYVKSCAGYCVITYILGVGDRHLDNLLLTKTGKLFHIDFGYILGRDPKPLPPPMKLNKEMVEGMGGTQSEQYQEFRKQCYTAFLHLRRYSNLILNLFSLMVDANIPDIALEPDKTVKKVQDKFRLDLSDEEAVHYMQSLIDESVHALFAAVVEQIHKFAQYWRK
Protocol for mTOR: Lanthascreen™ Kinase Binding Assay for mTOR (G)
Binding of an inhibitor to the kinase competes for binding with the tracer, resulting in a loss of FRET.
50 nL of compound dilutions were dispensed onto white 384-well small volume polystyrene plate.

As to `Cc1ccc(S(=O)(=O)N[C@H]2CC[C@H](O)CC2)cc1-c1cnc(N)c(-c2nc(C3CC3)no2)n1` [Example 24, Trans-3-[5-Amino-6-(3-cyclopropyl-[1,2,4]oxadiazol-5-yl)-pyrazin-2-yl]-N-(4-hydroxy-cyclohexyl)-4-methyl-benzene sulfonamide], the IC50 came to 660 nM on PI 3-kinase delta [1]; 53 nM on PI 3-kinase gamma [2]; 200 nM on PI 3-kinase alpha [3]; 561 nM in [4]; 60 nM at PI 3-kinase delta [5]; 7910 nM at mTOR. Besides, the IC50 on PI 3-kinase beta [7] was 6250 nM; at Vps34, greater than 9100 nM; on PI 3-kinase alpha [8], 1060 nM; at PI 3-kinase gamma [9], 7 nM; on PI 4-kinase beta, greater than 9100 nM; at PI 3-kinase beta [10], 6060 nM. Moreover, the “Assay M RLM CI(int)” value in [6] came to 43 µL/min/mg.

In the case of `Cc1ccc(S(=O)(=O)NCCC(C)(C)O)cc1-c1cnc(N)c(-n2cnc(C3CC3)n2)n1` [Example 26, 3-[5-Amino-6-(3-cyclopropyl-[1,2,4]triazol-1-yl)-pyrazin-2-yl]-N-(3-hydroxy-3-methyl-butyl)-4-methyl-benzenesulfonamide], the IC50 is 760 nM on PI 3-kinase delta [1]; 54 nM on PI 3-kinase gamma [2]; 310 nM at PI 3-kinase alpha [3]; 683 nM in data set [4]; 70 nM on PI 3-kinase delta [5]; greater than 9100 nM on mTOR. Besides, the IC50 at PI 3-kinase beta [7] is 2030 nM; at Vps34, greater than 9100 nM; on PI 3-kinase alpha [8] it was 1100 nM; at PI 3-kinase gamma [9] it was 3 nM; at PI 4-kinase beta, 5470 nM; on PI 3-kinase beta [10], 6380 nM. In [6], the “Assay M RLM CI(int)” value was 223 µL/min/mg.

`CCN1CCC[C@@H]1CNS(=O)(=O)c1ccc(C)c(-c2cnc(N)c(-c3cn(C)nc3C)n2)c1` [Example 27, 3-[5-Amino-6-(1,3-dimethyl-1H-pyrazol-4-yl)-pyrazin-2-yl]-N—((R)-1-ethyl-pyrrolidin-2-ylmethyl)-4-methyl-benzenesulfonamide hydrochloride]: the IC50 was determined as 1020 nM on PI 3-kinase delta [1]; 58 nM at PI 3-kinase gamma [2]; 210 nM on PI 3-kinase alpha [3]; 562 nM in data set [4]; 70 nM at PI 3-kinase delta [5]; 7400 nM at mTOR. Besides, the IC50 on PI 3-kinase beta [7] is greater than 10000 nM; on Vps34 it was greater than 10000 nM; on PI 3-kinase alpha [8], greater than 10000 nM; on PI 3-kinase gamma [9] it was 47 nM; at PI 4-kinase beta it was 6650 nM; at PI 3-kinase beta [10], 870 nM. Further, the “Assay M RLM CI(int)” value in [6] is 60 µL/min/mg.

As for `Cc1ccc(S(=O)(=O)NCCC(C)(C)O)cc1-c1cnc(N)c(-c2csc(CN3CCOCC3)c2)n1` [Example 30, 3-[5-Amino-6-(5-morpholin-4-ylmethyl-thiophen-3-yl)-pyrazin-2-yl]-N-(3-hydroxy-3-methyl-butyl)-4-methyl-benzenesulfonamide], the IC50 on PI 3-kinase delta [1] stood at 480 nM; at PI 3-kinase gamma [2], 98 nM; on PI 3-kinase alpha [3] it was 300 nM; in data set [4], 407 nM; on PI 3-kinase delta [5], 50 nM; on mTOR, 6990 nM. The IC50 was 1650 nM on PI 3-kinase beta [7]; greater than 9100 nM at Vps34; 3810 nM on PI 3-kinase alpha [8]; 24 nM on PI 3-kinase gamma [9]; 7890 nM at PI 4-kinase beta; 5210 nM on PI 3-kinase beta [10]. Also, the “Assay M RLM CI(int)” value in data set [6] came out at 116 µL/min/mg.

With `Cc1ccc(S(=O)(=O)NOCC(C)(C)O)cc1-c1cnc(N)c(-n2cncn2)n1` [Example 31, 3-(5-Amino-6-[1,2,4]triazol-1-yl-pyrazin-2-yl)-N-(2-hydroxy-2-methyl-propoxy)-4-methyl-benzenesulfonamide], the IC50 on PI 3-kinase delta [1] is 1030 nM; on PI 3-kinase gamma [2] it was 40 nM; on PI 3-kinase alpha [3], 160 nM; in data set [4], 917 nM; at PI 3-kinase delta [5] it was 120 nM; at mTOR, 3800 nM. Besides, the IC50 at PI 3-kinase beta [7] is 2510 nM; on Vps34, greater than 9550 nM; on PI 3-kinase alpha [8], 1040 nM; on PI 3-kinase gamma [9], 27 nM; at PI 4-kinase beta it was 4400 nM; at PI 3-kinase beta [10], 2000 nM. Also, the “Assay M RLM CI(int)” value in [6] came to 37 µL/min/mg.

Turning to `Cc1ccc(S(=O)(=O)NCC2(CO)COC2)cc1-c1cnc(N)c(-n2cncn2)n1` [Example 35, 3-(5-Amino-6-[1,2,4]triazol-1-yl-pyrazin-2-yl)-N-(3-hydroxymethyl-oxetan-3-ylmethyl)-4-methyl-benzenesulfonamide], the IC50 at PI 3-kinase delta [1] is greater than 10000 nM; on PI 3-kinase gamma [2], 418 nM; on PI 3-kinase alpha [3] it was 630 nM; in [4] it was 669 nM; on PI 3-kinase delta [5] it was 990 nM; on mTOR, 5600 nM. Besides, the concentration for half-maximal inhibition (IC50) on PI 3-kinase beta [7] was greater than 10000 nM; on Vps34, greater than 10000 nM; at PI 3-kinase alpha [8], greater than 10000 nM; at PI 3-kinase gamma [9] it was 25 nM; at PI 4-kinase beta, 3700 nM; at PI 3-kinase beta [10], 1900 nM. Also, the “Assay M RLM CI(int)” value in [6] turned out to be 25 µL/min/mg.

In the case of `Cc1ccc(S(=O)(=O)NC2CCC(F)(F)CC2)cc1-c1cnc(N)c(-c2cnn(C)c2)n1` [Example 54, 3-(5-Amino-6-(1-methyl-1H-pyrazol-4-yl)pyrazin-2-yl)-N-(4,4-difluorocyclohexyl)-4-methylbenzenesulfonamide], the half-maximal inhibitory concentration (IC50) stood at 2030 nM at PI 3-kinase delta [1]; 140 nM at PI 3-kinase gamma [2]; 190 nM on PI 3-kinase alpha [3]; 2010 nM in data set [4]; 110 nM at PI 3-kinase delta [5]; 4810 nM at mTOR. Moreover, the IC50 on PI 3-kinase beta [7] was 7410 nM; on Vps34, greater than 9100 nM; at PI 3-kinase alpha [8], 1690 nM; at PI 3-kinase gamma [9], 17 nM; on PI 4-kinase beta, greater than 9100 nM; on PI 3-kinase beta [10], 770 nM. Also, in [6], the “Assay M RLM CI(int)” value was 141 µL/min/mg.

As for `Cc1cn(-c2nc(-c3cc(S(=O)(=O)N[C@H]4CC[C@H](O)CC4)ccc3C)cnc2N)cn1` [Example 56, Trans-3-(5-Amino-6-(4-methyl-1H-imidazol-1-yl)pyrazin-2-yl)-N-(-4-hydroxycyclohexyl)-4-methylbenzenesulfonamide], the IC50 on PI 3-kinase delta [1] was determined as 3120 nM; on PI 3-kinase gamma [2] it was 129 nM; on PI 3-kinase alpha [3], 290 nM; in data set [4] it was 211 nM; at PI 3-kinase delta [5], 80 nM; at mTOR, 2380 nM. In addition, the IC50 came to 5880 nM at PI 3-kinase beta [7]; 3520 nM on Vps34; 4400 nM at PI 3-kinase alpha [8]; 19 nM on PI 3-kinase gamma [9]; 7270 nM at PI 4-kinase beta; 1750 nM on PI 3-kinase beta [10]. Also, the “Assay M RLM CI(int)” value in data set [6] was determined as 24 µL/min/mg.

For `Cc1cn(-c2nc(-c3cc(S(=O)(=O)NCCCO)ccc3C)cnc2N)cn1` [Example 57, 3-(5-Amino-6-(4-methyl-1H-imidazol-1-yl)pyrazin-2-yl)-N-(3-hydroxypropyl)-4-methylbenzenesulfonamide], the IC50 on PI 3-kinase delta [1] is greater than 10000 nM; at PI 3-kinase gamma [2], 329 nM; on PI 3-kinase alpha [3], 320 nM; in data set [4], 1270 nM; on PI 3-kinase delta [5], 580 nM; on mTOR, greater than 9100 nM. For the same compound, the 50% inhibitory concentration (IC50) on PI 3-kinase beta [7] is greater than 10000 nM; at Vps34, greater than 9100 nM; at PI 3-kinase alpha [8], greater than 10000 nM; on PI 3-kinase gamma [9] it was 57 nM; on PI 4-kinase beta, greater than 9100 nM; on PI 3-kinase beta [10] it was 6480 nM. In [6], the “Assay M RLM CI(int)” value is 17 µL/min/mg.

Regarding `Cc1ccc(S(=O)(=O)NCCC(C)(C)O)cc1-c1cnc(N)c(-n2cncn2)n1` [Example 64, 3-(5-Amino-6-(1H-1,2,4-triazol-1-yl)pyrazin-2-yl)-N-(3-hydroxy-3-methylbutyl)-4-methylbenzenesulfonamide], the IC50 at PI 3-kinase delta [1] is 1190 nM; on PI 3-kinase gamma [2], 189 nM; at PI 3-kinase alpha [3], 370 nM; in [4], 543 nM; on PI 3-kinase delta [5], 250 nM; on mTOR, greater than 9100 nM. The IC50 was determined as 4370 nM at PI 3-kinase beta [7]; 8490 nM at Vps34; 1240 nM on PI 3-kinase alpha [8]; 46 nM on PI 3-kinase gamma [9]; 6610 nM at PI 4-kinase beta; 3850 nM on PI 3-kinase beta [10]. Moreover, the “Assay M RLM CI(int)” value in [6] was 61 µL/min/mg.

By IC50 is commonly meant the concentration needed to halve the response being measured.
